In publication PMC11073699, “Odorant receptors for floral- and plant-derived volatiles in the yellow fever mosquito, Aedes aegypti (Diptera: Culicidae)” (PLOS ONE, 2024):
“And” between values parts separate entries of the source, which are not always exact repeats. Identical values can stand only once.

Key:
AaegOR71 = target: T1, AaegOR71 (Aedes aegypti, UniProt A0A3S7SHD4); experiment: Two-electrode voltage clamp of Xenopus laevis oocytes expressing AaegOR71/Orco (blends, unitary compounds, concentration-response); format: cell-based; conditions: for Raw Data (Response in nA) Oocyte 1 / Raw Data (Response in nA) Oocyte 2 / Raw Data (Response in nA) Oocyte 3 / Raw Data (Response in nA) Oocyte 4 / Raw Data (Response in nA) Oocyte 5 / Raw Data (Response in nA) Oocyte 6 / Raw Data (Response in nA) Oocyte 7 / Raw Data (Response in nA) Oocyte 8: Indoles 2 unitary compounds; for Raw Data (Response in nA): concentration-response, Oocytes 1-8 individually
T1 sequence (A0A3S7SHD4 1-415): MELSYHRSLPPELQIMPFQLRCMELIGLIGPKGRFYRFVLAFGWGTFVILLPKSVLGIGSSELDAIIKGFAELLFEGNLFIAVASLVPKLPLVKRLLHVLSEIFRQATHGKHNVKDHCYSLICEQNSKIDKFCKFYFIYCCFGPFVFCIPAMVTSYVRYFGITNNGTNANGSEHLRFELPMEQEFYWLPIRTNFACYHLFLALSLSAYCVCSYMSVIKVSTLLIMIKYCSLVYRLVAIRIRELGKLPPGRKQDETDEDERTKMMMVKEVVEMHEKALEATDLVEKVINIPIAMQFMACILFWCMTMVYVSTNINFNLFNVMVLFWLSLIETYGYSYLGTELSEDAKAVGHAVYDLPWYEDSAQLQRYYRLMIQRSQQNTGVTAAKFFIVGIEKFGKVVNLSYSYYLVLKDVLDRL
T1 sequence (Q178U6 1-478 partner): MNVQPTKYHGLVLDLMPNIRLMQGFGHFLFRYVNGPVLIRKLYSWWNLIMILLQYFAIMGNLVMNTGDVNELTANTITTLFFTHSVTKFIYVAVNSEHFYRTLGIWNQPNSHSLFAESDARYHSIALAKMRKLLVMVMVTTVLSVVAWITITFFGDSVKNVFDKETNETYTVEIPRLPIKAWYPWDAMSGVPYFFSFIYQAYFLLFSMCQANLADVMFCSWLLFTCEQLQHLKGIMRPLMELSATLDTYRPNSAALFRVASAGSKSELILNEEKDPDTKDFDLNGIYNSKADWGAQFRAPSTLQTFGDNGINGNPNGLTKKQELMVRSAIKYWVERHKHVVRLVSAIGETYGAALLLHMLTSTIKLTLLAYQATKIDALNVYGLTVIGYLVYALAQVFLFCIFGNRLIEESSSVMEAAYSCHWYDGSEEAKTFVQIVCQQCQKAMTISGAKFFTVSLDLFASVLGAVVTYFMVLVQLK
Text: (§1) The coding regions of ten AaegOR genes of interest (S3 File) and AaegOrco were synthesized by Twist Bioscience (San Francisco, CA, USA) and cloned into the pENTR plasmid. The Gateway LR directional cloning system (Invitrogen Corp., Carlsbad, CA, USA) was utilized to subclone AaegOR coding regions into the pSP64t-RFA oocyte expression plasmid. Plasmids were purified using the GeneJet Plasmid Miniprep Kit (ThermoFisher Scientific, Waltham, MA, USA). Purified plasmids were sequenced in both directions to confirm coding regions.
(§2) Chemical compounds (S6 File) used in the deorphanization of AaegORs were purchased from Acros Organics (Morris, NJ, USA), Alfa Aesar (Ward Hill, MA, USA), and ThermoFisher Scientific (Waltham, MA, USA) at the highest purity available. Compounds were stored as 1M stocks in 100% DMSO. Serial dilutions of each compound were prepared in 10% DMSO and blended by chemical class.
(§3) pSP64t-RFA: AaegOR clones were linearized using Xbal, and cRNAs were synthesized using the mMESSAGE mMACHINE ® SP6 kit (Life Technologies, Carlsbad, CA, USA). Xenopus laevis stage V-VII oocytes purchased from Xenopus1 (Dexter, MI, USA) were stored at 18°C in Incubation medium (ND96 96 with 5% dialyzed horse serum, 50μg/mL gentamycin, 100μg/mL streptomycin, 100μg/mL penicillin, and 550μg/mL sodium pyruvate). 30nL of cRNA was injected into multiple oocytes using a microinjection syringe pump (World Precision Instruments, Sarasota, FL, USA) maintained at 18°C for 48–72 hrs. Odorant blends were perfused across individual oocytes for 10–15 seconds, held at a resting membrane potential of -80 mV using an OC-725C oocyte clamp (Warner Instruments, LLC, Hamden, CT, USA). Induced currents were measured indirectly using the two-electrode voltage clamp technique (TEVC). Following each stimulus, currents were allowed to return to baseline before further stimulation. Data was captured using the Digidata 1550 B digitizer and PClamp10 software (Molecular Devices, San Jose, CA, USA). Concentration-response curves were generated by perfusing unitary odorants over oocytes at increasing concentrations from [10^-3M] to [10^-9M]. Data were analyzed using GraphPad Prism 8 (GraphPad Software Inc., La Jolla, CA, USA). At least two biological replicates were conducted at each concentration and for each compound. Data for at least seven oocytes responding to each compound was analyzed (S7 File).

AaegOR6 = target: T2, AaegOR6 (Aedes aegypti, UniProt A0A1S4G757); experiment: Two-electrode voltage clamp of Xenopus laevis oocytes expressing AaegOR6/Orco (blends, unitary compounds, concentration-response); format: cell-based; conditions: Indoles 2 unitary compounds
T2 sequence (A0A1S4G757 1-398): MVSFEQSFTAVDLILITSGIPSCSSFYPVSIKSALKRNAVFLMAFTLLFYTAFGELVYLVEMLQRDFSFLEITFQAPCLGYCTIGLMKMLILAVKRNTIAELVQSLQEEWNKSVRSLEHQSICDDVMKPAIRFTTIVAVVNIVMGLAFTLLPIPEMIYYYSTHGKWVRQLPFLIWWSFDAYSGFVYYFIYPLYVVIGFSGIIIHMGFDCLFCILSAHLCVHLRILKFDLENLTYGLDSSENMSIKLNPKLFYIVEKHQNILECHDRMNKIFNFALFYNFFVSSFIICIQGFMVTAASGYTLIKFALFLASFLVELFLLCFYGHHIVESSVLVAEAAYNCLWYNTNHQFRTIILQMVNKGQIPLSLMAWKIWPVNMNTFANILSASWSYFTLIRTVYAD
T2 sequence (Q178U6 1-478 partner): T1 sequence (Q178U6 1-478 partner)
Text: as §1, §2, §3

SMILES	Raw Data (Response in nA) Oocyte 1 (AaegOR71)	Raw Data (Response in nA) Oocyte 2 (AaegOR71)	Raw Data (Response in nA) Oocyte 3 (AaegOR71)	Raw Data (Response in nA) Oocyte 4 (AaegOR71)	Raw Data (Response in nA) Oocyte 5 (AaegOR71)	Raw Data (Response in nA) Oocyte 6 (AaegOR71)	Raw Data (Response in nA) Oocyte 7 (AaegOR71)	Raw Data (Response in nA) Oocyte 8 (AaegOR71)	Raw data (Responses in nA) Oocyte 1 (AaegOR6)	Raw data (Responses in nA) Oocyte 2 (AaegOR6)	Raw data (Responses in nA) Oocyte 3 (AaegOR6)	Raw data (Responses in nA) Oocyte 4 (AaegOR6)	Raw data (Responses in nA) Oocyte 5 (AaegOR6)	Raw data (Responses in nA) Oocyte 6 (AaegOR6)	Raw data (Responses in nA) Oocyte 7 (AaegOR6)	Raw data (Responses in nA) Oocyte 8 (AaegOR6)	further results
O=Cc1ccnc2ccccc12 [4-quinolinecarboxaldehyde, 4-Quinolinecarboxaldehyde]	1070 nA	2930 nA	590 nA	1710 nA	390 nA	930 nA	330 nA	410 nA	0.0 nA	0.0 nA	0.0 nA	0.0 nA	0.0 nA	0.0 nA	0.0 nA	0.0 nA	EC50 (AaegOR71; AaegOR71/Orco expressing oocytes, TEVC, concentration-response of normalized current): ~960 nM and 960 nM; Raw Data (Response in nA) (AaegOR71; first series, 1e-9 M): 10 nA (2×) and 0 nA (5×) and 30 nA; Raw Data (Response in nA) (AaegOR71; first series, 5e-9 M): 30 nA (2×) and 10 nA (2×) and 20 nA and 0 nA and 5 nA (2×); Raw Data (Response in nA) (AaegOR71; first series, 1e-8 M): 60 nA (2×) and 15 nA and 30 nA and 25 nA and 5 nA and 10 nA (2×); Raw Data (Response in nA) (AaegOR71; first series, 5e-8 M): 140 nA and 35 nA and 70 nA and 25 nA (2×) and 110 nA and 10 nA and 30 nA; Raw Data (Response in nA) (AaegOR71; first series, 1e-7 M): 200 nA and 50 nA (3×) and 120 nA and 30 nA (2×) and 190 nA; Raw Data (Response in nA) (AaegOR71; first series, 5e-7 M): 500 nA and 150 nA and 320 nA and 90 nA (2×) and 380 nA and 100 nA and 120 nA; Raw Data (Response in nA) (AaegOR71; first series, 1e-6 M): 620 nA and 180 nA and 410 nA and 125 nA and 470 nA and 140 nA and 150 nA (2×); Raw Data (Response in nA) (AaegOR71; second series (unlabelled), 5e-9 M): 8.84 nA and 16 nA and 25 nA and 15 nA (2×) and 5 nA (2×) and 0 nA; Raw Data (Response in nA) (AaegOR71; second series (unlabelled), 1e-8 M): 20 nA (3×) and 40 nA (2×) and 60 nA and 150 nA and 30 nA; Raw Data (Response in nA) (AaegOR71; second series (unlabelled), 5e-8 M): 40 nA (4×) and 80 nA and 100 nA and 160 nA and 20 nA; Raw Data (Response in nA) (AaegOR71; second series (unlabelled), 1e-7 M): 60 nA (3×) and 120 nA (2×) and 190 nA and 40 nA and 50 nA; Raw Data (Response in nA) (AaegOR71; second series (unlabelled), 5e-7 M): 140 nA and 240 nA and 260 nA and 110 nA and 80 nA (2×) and 300 nA and 50 nA; Raw Data (Response in nA) (AaegOR71; second series (unlabelled), 1e-6 M): 180 nA and 290 nA (2×) and 140 nA
OCc1c[nH]c2ccccc12 [3-Indolemethanol]	240 nA	0 nA	0 nA	0 nA	0 nA	0 nA	0 nA	0 nA	0.0 nA	0.0 nA	10.0 nA	0.0 nA	0.0 nA	0.0 nA	0.0 nA	0.0 nA	
O=C(O)Cc1c[nH]c2ccccc12 [1H-Indole-3-acetic acid]	0 nA	20 nA	0 nA	15 nA	20 nA	60 nA	15 nA	60 nA	10.0 nA	10.0 nA	10.0 nA	0.0 nA	10.0 nA	0.0 nA	0.0 nA	0.0 nA	
Oc1cccc2[nH]ccc12 [4-Hydroxyindole]	20 nA	30 nA	0 nA	30 nA	0 nA	30 nA	30 nA	10 nA	0.0 nA	0.0 nA	5.0 nA	0.0 nA	0.0 nA	0.0 nA	0.0 nA	0.0 nA	
c1ccc2ncncc2c1 [Quinazoline]	70 nA	440 nA	45 nA	250 nA	40 nA	150 nA	50 nA	40 nA	0.0 nA	0.0 nA	0.0 nA	0.0 nA	0.0 nA	10.0 nA	0.0 nA	0.0 nA	
